Our source for the AC50 values is patent publication US20250346600A1, “TRICYCLIC DERIVATIVES AND RELATED USES” (MOMA Therapeutics, Inc., priority 2023, published 2025).

Structures are written as SMILES. Read-outs that look alike come from different tables or passages of the source.

The target of experiment [1] is Full length WRN protein (aa 2-1432) (Homo sapiens (Human), UniProt Q14191). In words: WRN ATPase ADP-Glo biochemical assay, Assay Format B (100 μM ATP). The settings on record: 0.25 nM WRN, 100 nM C6.18 ssDNA, 60 min preincubation, read-out: ATPase ADPGlo AC50 (uM)- Assay Format B. (ADP-Glo first removes unused ATP, then detects ADP through luciferase.)
In the next experiment the test system is HCT116 cells. As to the kind of experiment: HCT116 (MSI) 7 day viability, CellTiter Glo. In kind it is cell-based. The settings on record: 7 days, read-out: HCT116 (MSI) Viability 7 Day Abs AC50. As for the experimental part: (§1) Compounds were dissolved in DMSO to a concentration of 10 mM. Compounds were then serially diluted in 10 3-fold steps in DMSO using an EVO (Tecan). Plates were then spun down for 1 minute at 1,000 RPM at room temperature.
(§2) The colon carcinoma lines HCT116 (RRID: CVCL_0291) and HT29 (RRID: CVCL_0320) were obtained from ATCC. […] All cells were maintained at 37° C. with 5% CO2 incubator.
(§3) After harvesting, cells were spun down for 5 minutes at 1200 RPM. Cells were resuspended in 10 mL of growth media and counted using Countess (Thermo Fisher). Cell concentrations were adjusted to 50 cells/well for HCT116 and 500 cells/well for HT29. 50 μL of diluted cells were added to compound treated 384 well plates using a 12 channel, 300 uL electronic handheld pipette (Integra). Cell treated plates were placed in 37 C with 5% CO2 incubator for 7 days.
(§4) Afterwards, cells were removed from incubator and equilibrated to room temperature for 15 minutes. 35 uL of CellTiter Glo (Promega #G7573) reagent were added to each well using a 12 channel, 300 uL electronic handheld pipette (Integra). Plates were incubated for 20 minutes at room temperature. Luminescence quantification was performed using Envision (PerkinElmer).
(§5) For data analysis, the assay background signal was determined in wells containing medium, but no cells. Potencies were calculated by linear least squares fit to the four-parameter logistic IC50 equation. The reported IC50 values are the geometrical mean of at least 2 independent replicates.

The next experiment relates to HT29 cells. In words: HT29 (MSS) 7 day viability, CellTiter Glo. In kind it is cell-based. The settings on record: 7 days, read-out: HT29 (MSS) Viability 7 Day CTGAbs AC50. The procedure: as §1, §2, §3, §4, §5

Sequence of Full length WRN protein (aa 2-1432) (Q14191 2-1432): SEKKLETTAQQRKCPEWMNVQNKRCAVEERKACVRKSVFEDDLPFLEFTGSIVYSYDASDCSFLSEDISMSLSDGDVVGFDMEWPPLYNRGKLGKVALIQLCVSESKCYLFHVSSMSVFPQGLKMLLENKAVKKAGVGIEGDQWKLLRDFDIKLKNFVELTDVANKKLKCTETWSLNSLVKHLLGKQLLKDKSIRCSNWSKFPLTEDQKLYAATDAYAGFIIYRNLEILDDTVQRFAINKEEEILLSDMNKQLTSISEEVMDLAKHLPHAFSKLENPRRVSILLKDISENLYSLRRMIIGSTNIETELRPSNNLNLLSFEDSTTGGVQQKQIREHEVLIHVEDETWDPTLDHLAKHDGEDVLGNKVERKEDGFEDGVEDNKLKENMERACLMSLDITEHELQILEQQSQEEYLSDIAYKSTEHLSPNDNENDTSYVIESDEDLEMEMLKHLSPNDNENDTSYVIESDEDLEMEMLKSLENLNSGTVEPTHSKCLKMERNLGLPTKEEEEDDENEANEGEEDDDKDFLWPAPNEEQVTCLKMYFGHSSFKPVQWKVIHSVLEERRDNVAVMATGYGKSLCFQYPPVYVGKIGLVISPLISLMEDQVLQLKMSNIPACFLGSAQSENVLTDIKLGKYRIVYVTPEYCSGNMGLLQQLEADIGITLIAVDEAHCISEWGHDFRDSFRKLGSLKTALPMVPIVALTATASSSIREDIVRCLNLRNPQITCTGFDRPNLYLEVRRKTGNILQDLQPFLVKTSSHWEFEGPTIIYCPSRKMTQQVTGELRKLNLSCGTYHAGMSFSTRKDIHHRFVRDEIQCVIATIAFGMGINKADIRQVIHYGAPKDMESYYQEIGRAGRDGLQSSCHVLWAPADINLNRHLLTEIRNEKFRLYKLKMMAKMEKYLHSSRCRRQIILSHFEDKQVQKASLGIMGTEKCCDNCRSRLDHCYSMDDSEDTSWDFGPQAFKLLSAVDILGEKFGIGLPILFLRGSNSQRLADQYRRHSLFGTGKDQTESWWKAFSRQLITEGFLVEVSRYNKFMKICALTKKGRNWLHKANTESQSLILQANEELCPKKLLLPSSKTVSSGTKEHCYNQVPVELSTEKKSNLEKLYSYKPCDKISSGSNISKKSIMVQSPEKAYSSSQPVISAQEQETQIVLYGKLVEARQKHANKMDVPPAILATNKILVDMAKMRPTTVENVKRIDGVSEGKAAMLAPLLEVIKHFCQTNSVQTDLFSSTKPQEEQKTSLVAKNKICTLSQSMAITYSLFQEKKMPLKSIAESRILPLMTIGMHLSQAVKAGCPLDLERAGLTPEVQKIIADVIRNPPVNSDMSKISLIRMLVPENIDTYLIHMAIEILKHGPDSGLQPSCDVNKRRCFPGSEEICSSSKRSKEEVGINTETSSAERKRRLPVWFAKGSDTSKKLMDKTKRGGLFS

Usually AC50 stands for the concentration giving half of the maximal activity seen. For `C=CC(=O)N1CCc2nn(-c3ccc(C4CC4)cc3O)c3c2C(C1)N(C(=O)c1c(N)cc(Br)c2nc[nH]c12)CC3` (stereo not drawn) [Compound 212, 1-(5-(6-amino-4-bromo-1H-benzo[d]imidazole-7-carbonyl)-2-(4-cyclopropyl-2-hydroxyphenyl)-2,3,4,5,5a,6,8,9-octahydro-7H-1,2,5,7-tetraazabenzo[cd]azulen-7-yl)prop-2-en-1-one], the AC50 was 0.0015 to 0.005 µM in experiment [1]; 1 to 100 nM in the experiment on HCT116 cells (Homo sapiens, HCT-116, 168 h); over 3000 nM with HT29 cells (Homo sapiens, HT-29, 168 h).
In the same order, the values of `C=CC(=O)N1CCc2nn(-c3ccc(C4CC4)cc3O)c3c2C(C1)N(C(=O)c1ccc(C(F)(F)F)nc1)CC3` (stereo not drawn) [Compound 213, 1-(2-(4-cyclopropyl-2-hydroxyphenyl)-5-(6-(trifluoromethyl)nicotinoyl)-2,3,4,5,5a,6,8,9-octahydro-7H-1,2,5,7-tetraazabenzo[cd]azulen-7-yl)prop-2-en-1-one] are 0.005 to 0.015 µM, 1 to 100 nM and over 3000 nM.
`C=CC(=O)N1CCc2nn(-c3ccc(C4CC4)cc3O)c3c2C(C1)N(C(=O)c1cnc(SC(F)(F)F)c(F)c1N)CC3` (stereo not drawn) [Compound 214, 1-(5-(4-amino-5-fluoro-6-((trifluoromethyl)thio)nicotinoyl)-2-(4-cyclopropyl-2-hydroxyphenyl)-2,3,4,5,5a,6,8,9-octahydro-7H-1,2,5,7-tetraazabenzo[cd]azulen-7-yl)prop-2-en-1-one]: the half-maximal activity concentration (AC50) in experiment [1] is 0.005 to 0.015 µM; in the experiment on HCT116 cells (Homo sapiens, HCT-116, 168 h), 1 to 100 nM; in the experiment on HT29 cells (Homo sapiens, HT-29, 168 h) it was over 3000 nM.
The matching figures for `C=CC(=O)N1CCc2nn(-c3ccc(C4CC4)c(F)c3O)c3c2C(C1)N(C(=O)c1cnc(Br)cc1N)CC3` (stereo not drawn) [Compound 215, 1-(5-(4-amino-6-bromonicotinoyl)-2-(4-cyclopropyl-3-fluoro-2-hydroxyphenyl)-2,3,4,5,5a,6,8,9-octahydro-7H-1,2,5,7-tetraazabenzo[cd]azulen-7-yl)prop-2-en-1-one]: 0.0015 to 0.005 µM, 1 to 100 nM and over 3000 nM.
On to `C=CC(=O)N1CCc2nn(-c3ccc(C4CC4)cc3O)c3c2C(C1)N(C(=O)c1cnc(C(F)(F)F)c(OC)c1N)CC3` (stereo not drawn) [Compound 216, 1-(5-(4-amino-5-methoxy-6-(trifluoromethyl)nicotinoyl)-2-(4-cyclopropyl-2-hydroxyphenyl)-2,3,4,5,5a,6,8,9-octahydro-7H-1,2,5,7-tetraazabenzo[cd]azulen-7-yl)prop-2-en-1-one], for which the AC50 in experiment [1] is 0.0015 to 0.005 µM; in the experiment on HCT116 cells, 1 to 100 nM; with HT29 cells, over 3000 nM.
As for `C=CC(=O)N1CCc2nn(-c3ccc(C4CCCC4)cc3O)c3c2C(C1)N(C(=O)c1cnc(C(F)(F)F)cc1N)CC3` (stereo not drawn) [Compound 217, 1-(5-(4-amino-6-(trifluoromethyl)nicotinoyl)-2-(4-cyclopentyl-2-hydroxyphenyl)-2,3,4,5,5a,6,8,9-octahydro-7H-1,2,5,7-tetraazabenzo[cd]azulen-7-yl)prop-2-en-1-one], the AC50 is 0.0015 to 0.005 µM in experiment [1]; 1 to 100 nM in the experiment on HCT116 cells (Homo sapiens, HCT-116, 168 h); over 3000 nM with HT29 cells (Homo sapiens, HT-29, 168 h).
The matching figures for `C=CC(=O)N1CCc2nn(-c3ccc(C4CC4)c(F)c3O)c3c2C(C1)N(C(=O)c1cnc(C(F)(F)F)c(F)c1N)CC3` (stereo not drawn) [Compound 218, 1-(5-(4-amino-5-fluoro-6-(trifluoromethyl)nicotinoyl)-2-(4-cyclopropyl-3-fluoro-2-hydroxyphenyl)-2,3,4,5,5a,6,8,9-octahydro-7H-1,2,5,7-tetraazabenzo[cd]azulen-7-yl)prop-2-en-1-one]: 0.005 to 0.015 µM, 1 to 100 nM and over 3000 nM.
Regarding `C=CC(=O)N1CCc2nn(C34CC(C5CCCC5)(C3)C4)c3c2C(C1)N(C(=O)c1cnc(C(F)(F)F)cc1N)CC3` (stereo not drawn) [Compound 219, 1-(5-(4-amino-6-(trifluoromethyl)nicotinoyl)-2-(3-cyclopentylbicyclo[1.1.1]pentan-1-yl)-2,3,4,5,5a,6,8,9-octahydro-7H-1,2,5,7-tetraazabenzo[cd]azulen-7-yl)prop-2-en-1-one], the AC50 in experiment [1] was 0.005 to 0.015 µM; in the experiment with HCT116 cells, 1 to 100 nM; with HT29 cells it was over 3000 nM.
As to `C=CC(=O)N1CCc2nn(-c3ccc(C4CC4)cc3)c3c2C(C1)N(C(=O)c1c(N)nc(C(F)(F)F)c(F)c1N)CC3` (stereo not drawn) [Compound 220, 1-(2-(4-cyclopropylphenyl)-5-(2,4-diamino-5-fluoro-6-(trifluoromethyl)nicotinoyl)-2,3,4,5,5a,6,8,9-octahydro-7H-1,2,5,7-tetraazabenzo[cd]azulen-7-yl)prop-2-en-1-one], the AC50 in experiment [1] is 0.0015 to 0.005 µM; in the experiment with HCT116 cells (Homo sapiens, HCT-116, 168 h), 1 to 100 nM; with HT29 cells (Homo sapiens, HT-29, 168 h), over 3000 nM.
Consider `C=CC(=O)N1CCc2nn(-c3ccc(C4CC4)cc3O)c3c2C(C1C)N(C(=O)c1cnc(C(F)(F)F)cc1N)CC3` (stereo not drawn) [Compound 221, 1-(5-(4-amino-6-(trifluoromethyl)nicotinoyl)-2-(4-cyclopropyl-2-hydroxyphenyl)-6-methyl-2,3,4,5,5a,6,8,9-octahydro-7H-1,2,5,7-tetraazabenzo[cd]azulen-7-yl)prop-2-en-1-one], for which the AC50 was 0.005 to 0.015 µM in experiment [1]; 1 to 100 nM in the experiment with HCT116 cells (Homo sapiens, HCT-116, 168 h); over 3000 nM with HT29 cells (Homo sapiens, HT-29, 168 h).
In the same order, the values of `C=CC(=O)N1CC(OC2CC(C#N)C2)c2nn(-c3ccc(C4CC4)cc3O)c3c2C(C1)N(C(=O)c1cnc(C(F)(F)F)cc1N)CC3` (stereo not drawn) [Compound 222, 3-((7-acryloyl-5-(4-amino-6-(trifluoromethyl)nicotinoyl)-2-(4-cyclopropyl-2-hydroxyphenyl)-3,4,5,5a,6,7,8,9-octahydro-2H-1,2,5,7-tetraazabenzo[cd]azulen-9-yl)oxy)cyclobutane-1-carbonitrile] are 0.0015 to 0.005 µM, 1 to 100 nM and over 3000 nM.
Turning to `C=CC(=O)N1CCc2nn(-c3ccc(C4CC4)cc3O)c3c2C(C1)N(C(=O)c1cnc(SC)c(F)c1N)CC3` (stereo not drawn) [Compound 223, 1-(5-(4-amino-5-fluoro-6-(methylthio)nicotinoyl)-2-(4-cyclopropyl-2-hydroxyphenyl)-2,3,4,5,5a,6,8,9-octahydro-7H-1,2,5,7-tetraazabenzo[cd]azulen-7-yl)prop-2-en-1-one], the AC50 was 0.0015 to 0.005 µM in experiment [1]; 1 to 100 nM with HCT116 cells (Homo sapiens, HCT-116, 168 h); over 3000 nM in the experiment on HT29 cells (Homo sapiens, HT-29, 168 h).
The matching figures for `C=CC(=O)N1CCc2nn(-c3cc(F)c(C4CC4)cc3O)c3c2C(C1)N(C(=O)c1cnc(C(F)(F)F)cc1N)CC3` (stereo not drawn) [Compound 224, 1-(5-(4-amino-6-(trifluoromethyl)nicotinoyl)-2-(4-cyclopropyl-5-fluoro-2-hydroxyphenyl)-2,3,4,5,5a,6,8,9-octahydro-7H-1,2,5,7-tetraazabenzo[cd]azulen-7-yl)prop-2-en-1-one]: 0.005 to 0.015 µM, 1 to 100 nM and over 3000 nM.
With `C=CC(=O)N1CCc2nn(-c3ccc(C4CC4)cc3CO)c3c2C(C1)N(C(=O)c1cnc(C(F)(F)F)cc1N)CC3` (stereo not drawn) [Compound 225, 1-(5-(4-amino-6-(trifluoromethyl)nicotinoyl)-2-(4-cyclopropyl-2-(hydroxymethyl)phenyl)-2,3,4,5,5a,6,8,9-octahydro-7H-1,2,5,7-tetraazabenzo[cd]azulen-7-yl)prop-2-en-1-one], the AC50 in experiment [1] is 0.015 to 0.055 µM; with HCT116 cells (Homo sapiens, HCT-116, 168 h) it was 100 to 250 nM; in the experiment with HT29 cells (Homo sapiens, HT-29, 168 h), over 3000 nM.
The matching figures for `C=CC(=O)N1CCc2nn(-c3ccc(SC(F)(F)F)cc3O)c3c2C(C1)N(C(=O)c1cnc(C(F)(F)F)cc1N)CC3` (stereo not drawn) [Compound 226, 1-(5-(4-amino-6-(trifluoromethyl)nicotinoyl)-2-(2-hydroxy-4-((trifluoromethyl)thio)phenyl)-2,3,4,5,5a,6,8,9-octahydro-7H-1,2,5,7-tetraazabenzo[cd]azulen-7-yl)prop-2-en-1-one]: 0.005 to 0.015 µM, 1 to 100 nM and over 3000 nM.
In the same order, the values of `C=CC(=O)N1CCc2nn(-c3ccc(C4CC4)c(F)c3O)c3c2C(C1)N(C(=O)c1cnc(C(C)(F)F)c(F)c1N)CC3` (stereo not drawn) [Compound 227, 1-(5-(4-amino-6-(1,1-difluoroethyl)-5-fluoronicotinoyl)-2-(4-cyclopropyl-3-fluoro-2-hydroxyphenyl)-2,3,4,5,5a,6,8,9-octahydro-7H-1,2,5,7-tetraazabenzo[cd]azulen-7-yl)prop-2-en-1-one] are 0.005 to 0.015 µM, 1 to 100 nM and under 1000 nM.
Take `C=CC(=O)N1CCc2nn(-c3ccc(C4CC4)cc3O)c3c2C(C1)N(C(=O)c1nnc(Br)cc1N)CC3` (stereo not drawn) [Compound 228, 1-(5-(4-amino-6-bromopyridazine-3-carbonyl)-2-(4-cyclopropyl-2-hydroxyphenyl)-2,3,4,5,5a,6,8,9-octahydro-7H-1,2,5,7-tetraazabenzo[cd]azulen-7-yl)prop-2-en-1-one]: the half-maximal activity concentration (AC50) in experiment [1] was 0.0015 to 0.005 µM; in the experiment with HCT116 cells (Homo sapiens, HCT-116, 168 h) it was 1 to 100 nM; in the experiment with HT29 cells (Homo sapiens, HT-29, 168 h), over 3000 nM.
